Results from patent US10407409B2, “6-(5-hydroxy-1H-pyrazol-1-yl)nicotinamide inhibitors of PHD” (Takeda Pharmaceutical Company Limited, priority 2013, dated 2019).

Columns and labels:
[1] = test system: HIF1a protein in H9c2 rat cardiomyocytes; test: Cell-based HIF-alpha stabilization assay (inhibition of PHD in cells); conditions: 24 hrs compound incubation, HIF1a protein by ELISA; for EC50: Rattus norvegicus, H9c2, 24 h, read-out: Inhibition of PHD in cells (pEC50) (converted)
Outline: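 HIF1a stabilization was measured by ELISA on lysates of H9c2 rat cardiomyocytes after 24 h exposure to 11 serial compound concentrations, expressed relative to the desferrioxamine maximum. Curve fits gave EC50. EC50pos denotes the concentration producing half the desferrioxamine maximal response.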

[2] = target: PHD2 enzyme (residues 181-417) (Homo sapiens (Human), UniProt Q9GZT9); test: Inhibition of PHD enzyme (LC/MS peptide hydroxylation assay); assay type: biochemical; conditions: PHD2 (residues 181-417) 5 nM, 60 min pre-incubation; -log(IC50), IC50 molar
PHD2 enzyme (residues 181-417), sequence (Q9GZT9 181-417): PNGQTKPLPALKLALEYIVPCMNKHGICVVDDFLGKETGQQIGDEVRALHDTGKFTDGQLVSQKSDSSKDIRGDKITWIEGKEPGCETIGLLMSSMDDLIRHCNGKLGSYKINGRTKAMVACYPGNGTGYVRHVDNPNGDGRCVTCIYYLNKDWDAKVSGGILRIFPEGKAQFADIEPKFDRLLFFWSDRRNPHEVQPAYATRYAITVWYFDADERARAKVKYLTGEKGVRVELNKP
Outline: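 Hydroxylated peptide quantified by LC/MS after 60 min turnover of 1 uM biotinylated peptide with 2 uM 2-oxoglutarate and 1 mM ascorbate, stopped by excess tight-binding inhibitor. Beforehand, 5 nM enzyme and compound were preincubated 60 min at RT, pH 7.3 HEPES/KCl/TCEP/FeCl2/BSA buffer. Values as pIC50 (−log molar IC50).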

| SMILES | EC50 [1] | PHD Inhibition (pIC50) [2] | Inhibition of PHD in cells (pEC50) [1] |
| --- | --- | --- | --- |
| Cc1cc(C#N)c(F)cc1-c1cnn(-c2ccc(C(=O)N3CCN(C)CC3)cn2)c1O [Example 396, 2-fluoro-4-(5-hydroxy-1-(5-(4-methylpiperazine-1-carbonyl)pyridin-2-yl)-1H-pyrazol-4-yl)-5-methylbenzonitrile] | 2090 nM | 8.59 |  |
| CCN1CCN(C(=O)c2ccc(-n3ncc(-c4cc(F)c(C#N)cc4C)c3O)nc2)C[C@@H]1C [Example 397, (S)-4-(1-(5-(4-ethyl-3-methylpiperazine-1-carbonyl)pyridin-2-yl)-5-hydroxy-1H-pyrazol-4-yl)-2-fluoro-5-methylbenzonitrile] | 1620 nM | 8.52 |  |
| Cc1cc(C#N)c(F)cc1-c1cnn(-c2ccc(C(=O)N3CCOCC3)cn2)c1O [Example 398, 2-fluoro-4-(5-hydroxy-1-(5-(morpholine-4-carbonyl)pyridin-2-yl)-1H-pyrazol-4-yl)-5-methylbenzonitrile] | 1950 nM | 8.65 |  |
| Cc1cc(C#N)c(F)cc1-c1cnn(-c2ccc(C(=O)N3CCN(C)C4(CC4)C3)cn2)c1O [Example 399, 2-fluoro-4-(5-hydroxy-1-(5-(4-methyl-4,7-diazaspiro[2.5]octane-7-carbonyl)pyridin-2-yl)-1H-pyrazol-4-yl)-5-methylbenzonitrile] | 1700 nM | 8.63 |  |
| Cc1cc(C#N)c(F)cc1-c1cnn(-c2ccc(C(=O)N3CCN(C)[C@@H](C)C3)cn2)c1O [Example 400, (S)-4-(1-(5-(3,4-dimethylpiperazine-1-carbonyl)pyridin-2-yl)-5-hydroxy-1H-pyrazol-4-yl)-2-fluoro-5-methylbenzonitrile] | 1660 nM | 8.50 |  |
| Cc1cc(C#N)c(F)cc1-c1cnn(-c2ccc(C(=O)N3CCN(C)[C@H](C)C3)cn2)c1O [Example 401, (R)-4-(1-(5-(3,4-dimethylpiperazine-1-carbonyl)pyridin-2-yl)-5-hydroxy-1H-pyrazol-4-yl)-2-fluoro-5-methylbenzonitrile] | 1580 nM | 8.44 |  |
| COCCCNC(=O)c1ccc(-n2ncc(-c3ccc(C#N)c(C)c3)c2O)nc1 [Example 402, 6-(4-(4-cyano-3-methylphenyl)-5-hydroxy-1H-pyrazol-1-yl)-N-(3-methoxypropyl)nicotinamide] | 4370 nM | 7.99 |  |
| COCCCNC(=O)c1ccc(-n2ncc(-c3cc(C)c(C#N)cc3C)c2O)nc1 [Example 403, 6-(4-(4-cyano-2,5-dimethylphenyl)-5-hydroxy-1H-pyrazol-1-yl)-N-(3-methoxypropyl)nicotinamide] | 1860 nM | 7.78 |  |
| COCCCNC(=O)c1ccc(-n2ncc(-c3c(C)cc(C#N)cc3F)c2O)nc1 [Example 404, 6-(4-(4-cyano-2-fluoro-6-methylphenyl)-5-hydroxy-1H-pyrazol-1-yl)-N-(3-methoxypropyl)nicotinamide] | 631 nM | 8.01 |  |
| COCCCNC(=O)c1ccc(-n2ncc(-c3cc(F)c(C#N)cc3C)c2O)nc1 [Example 405, 6-(4-(4-cyano-5-fluoro-2-methylphenyl)-5-hydroxy-1H-pyrazol-1-yl)-N-(3-methoxypropyl)nicotinamide] | 324 nM | 8.48 |  |
| COCCCNC(=O)c1ccc(-n2ncc(-c3ccc(C#N)c(F)c3C)c2O)nc1 [Example 406, 6-(4-(4-cyano-3-fluoro-2-methylphenyl)-5-hydroxy-1H-pyrazol-1-yl)-N-(3-methoxypropyl)nicotinamide] | 191 nM | 8.49 |  |
| COCCCNC(=O)c1ccc(-n2ncc(-c3ccc(C#N)c(C)c3C)c2O)nc1 [Example 409, 6-(4-(4-cyano-2,3-dimethylphenyl)-5-hydroxy-1H-pyrazol-1-yl)-N-(3-methoxypropyl)nicotinamide] | 257 nM | 8.24 |  |
| COCCCNC(=O)c1ccc(-n2ncc(-c3ccc(C#N)cc3COC)c2O)nc1 [Example 410, 6-(4-(4-cyano-2-(methoxymethyl)phenyl)-5-hydroxy-1H-pyrazol-1-yl)-N-(3-methoxypropyl)nicotinamide] | 513 nM | 8.07 |  |
| COCCCNC(=O)c1ccc(-n2ncc(-c3ccc(C#N)c(OC)c3C)c2O)nc1 [Example 411, 6-(4-(4-cyano-3-methoxy-2-methylphenyl)-5-hydroxy-1H-pyrazol-1-yl)-N-(3-methoxypropyl)nicotinamide] | 676 nM | 8.20 |  |
| Cc1cc(C#N)ccc1-c1cnn(-c2ccc(C(=O)N3CC[C@H](N(C)C)C3)cn2)c1O [Example 412, (S)-4-(1-(5-(3-(dimethylamino)pyrrolidine-1-carbonyl)pyridin-2-yl)-5-hydroxy-1H-pyrazol-4-yl)-3-methylbenzonitrile] | 282 nM | 8.11 |  |
| Cc1cc(C#N)ccc1-c1cnn(-c2ccc(C(=O)N3CC[C@@H](N(C)C)C3)cn2)c1O [Example 413, (R)-4-(1-(5-(3-(dimethylamino)pyrrolidine-1-carbonyl)pyridin-2-yl)-5-hydroxy-1H-pyrazol-4-yl)-3-methylbenzonitrile] | 2090 nM | 8.10 |  |
| Cc1cc(C#N)ccc1-c1cnn(-c2ccc(C(=O)N3CCN(C4CC4)CC3)cn2)c1O [Example 414, 4-(1-(5-(4-cyclopropylpiperazine-1-carbonyl)pyridin-2-yl)-5-hydroxy-1H-pyrazol-4-yl)-3-methylbenzonitrile] | 832 nM | 8.39 |  |
| CCCN1CCN(C(=O)c2ccc(-n3ncc(-c4ccc(C#N)cc4C)c3O)nc2)CC1 [Example 415, 4-(5-hydroxy-1-(5-(4-propylpiperazine-1-carbonyl)pyridin-2-yl)-1H-pyrazol-4-yl)-3-methylbenzonitrile] |  | 8.41 | 6.20 |
| Cc1cc(C#N)ccc1-c1cnn(-c2ccc(C(=O)N3CCC(N(C)C)CC3)cn2)c1O [Example 416, 4-(1-(5-(4-(dimethylamino)piperidine-1-carbonyl)pyridin-2-yl)-5-hydroxy-1H-pyrazol-4-yl)-3-methylbenzonitrile] | 1410 nM | 7.78 |  |
| Cc1cc(C#N)ccc1-c1cnn(-c2ccc(C(=O)N3CC[C@@H]4CN(C)C[C@@H]4C3)cn2)c1O [Example 417, 4-(5-hydroxy-1-(5-((3aR,7aS)-2-methyloctahydro-1H-pyrrolo[3,4-c]pyridine-5-carbonyl)pyridin-2-yl)-1H-pyrazol-4-yl)-3-methylbenzonitrile] | 575 nM | 7.87 |  |
| Cc1cc(C#N)ccc1-c1cnn(-c2ccc(C(=O)N3CCN(CC4CC4)CC3)cn2)c1O [Example 418, 4-(1-(5-(4-(cyclopropylmethyl)piperazine-1-carbonyl)pyridin-2-yl)-5-hydroxy-1H-pyrazol-4-yl)-3-methylbenzonitrile] | 1170 nM | 8.17 |  |
| Cc1cc(C#N)ccc1-c1cnn(-c2ccc(C(=O)N3CCC(CN(C)C)CC3)cn2)c1O [Example 419, 4-(1-(5-(4-((dimethylamino)methyl)piperidine-1-carbonyl)pyridin-2-yl)-5-hydroxy-1H-pyrazol-4-yl)-3-methylbenzonitrile] | 631 nM | 7.98 |  |
| Cc1cc(C#N)ccc1-c1cnn(-c2ccc(C(=O)N(C3CC3)C3CCN(C)CC3)cn2)c1O [Example 420, 6-(4-(4-cyano-2-methylphenyl)-5-hydroxy-1H-pyrazol-1-yl)-N-cyclopropyl-N-(1-methylpiperidin-4-yl)nicotinamide] | 537 nM | 7.87 |  |
| Cc1cc(C#N)ccc1-c1cnn(-c2ccc(C(=O)N3CCC(N4CCOCC4)CC3)cn2)c1O [Example 421, 4-(5-hydroxy-1-(5-(4-morpholinopiperidine-1-carbonyl)pyridin-2-yl)-1H-pyrazol-4-yl)-3-methylbenzonitrile] | 661 nM | 8.31 |  |
| COCCN(C(=O)c1ccc(-n2ncc(-c3ccc(C#N)cc3C)c2O)nc1)C1CCN(C)CC1 [Example 422, 6-(4-(4-cyano-2-methylphenyl)-5-hydroxy-1H-pyrazol-1-yl)-N-(2-methoxyethyl)-N-(1-methylpiperidin-4-yl)nicotinamide] | 501 nM | 7.87 |  |
| Cc1cc(C#N)ccc1-c1cnn(-c2ccc(C(=O)N3CCN(CCN(C)C)CC3)cn2)c1O [Example 423, 4-(1-(5-(4-(2-(dimethylamino)ethyl)piperazine-1-carbonyl)pyridin-2-yl)-5-hydroxy-1H-pyrazol-4-yl)-3-methylbenzonitrile] | 708 nM | 7.99 |  |
| CCN1CCC(N(C)C(=O)c2ccc(-n3ncc(-c4ccc(C#N)cc4C)c3O)nc2)CC1 [Example 425, 6-(4-(4-cyano-2-methylphenyl)-5-hydroxy-1H-pyrazol-1-yl)-N-(1-ethylpiperidin-4-yl)-N-methylnicotinamide] | 776 nM | 7.74 |  |
| COCCCNC(=O)c1ccc(-n2ncc(-c3cc(OC)c(C#N)cc3C)c2O)nc1 [Example 426, 6-(4-(4-cyano-5-methoxy-2-methylphenyl)-5-hydroxy-1H-pyrazol-1-yl)-N-(3-methoxypropyl)nicotinamide] | 2140 nM | 8.18 |  |
